For one assay, the system named is HeLa cells. As to the kind of experiment: Apoptosis assay, Annexin V/PI dual-staining. It counts as cell-based, human. Particulars: exponentially growing HeLa, various concentrations, 24 hrs, vs DMSO. The protocol: For apoptosis assay, HeLa cells were seeded at 3.0×10^4 cells/well into 6-well plates and incubated overnight. Then exponentially growing HeLa cells were treated with T521 at the indicated concentrations for 24 hrs and Annexin V/PI dual-staining was carried out using a commercial apoptosis assay kit (Beijing 4A Biotech. Co., Ltd.). DMSO-treated cells were taken as control.

The test system of assay [1] is normal cell lines, MRC5, HEK-293 and L02 cells. As to the kind of experiment: MTT assay, panel of normal cell lines. Particulars: Homo sapiens; three exponentially growing normal cell lines; read-out: IC50 proliferation, range over cell lines. It counts as cell-based. The protocol:
The MTT assay was performed as described. In brief, cells were seeded at 3000~5000 cells/well into 96-well plates (200 μL/well) and incubated overnight. We replaced the growth medium with fresh medium containing T521 at several concentrations (two-fold dilutions and the initial concentration is 50 μM, 10 reactions total). After further incubation for 48 hrs in the presence of T521, the medium was removed from all wells and the cells were incubated with 200 μL of fresh medium for additional 24 hrs. We then added 22 μL of MTT solution (Amresco; 5 mg/mL in PBS) to each well and incubated the plate for 4 hrs at 37°C. After removing the medium, we dissolved the purple MTT-formazan crystals by adding 150 μL of DMSO to each well and recorded absorbance at 560 nm by Envision Multilabel Reader (PerkinElmer). The inhibition curve was plotted to determine the IC50 of various cell lines using GraphPad Prism5.0.
On the technique in general: Tetrazolium dyes change colour on reduction, which living cells bring about.

In the next assay the target is T1, Plk2 PBD (Homo sapiens, UniProt Q9NYY3).
T1 construct: (326-603 aa), Plk2 (355-685 aa), and Plk3 (335-646 aa); GST (N); made in house; host or cells: E. coli Rosetta BL21(DE3)
T1 sequence (Q9NYY3 355-685): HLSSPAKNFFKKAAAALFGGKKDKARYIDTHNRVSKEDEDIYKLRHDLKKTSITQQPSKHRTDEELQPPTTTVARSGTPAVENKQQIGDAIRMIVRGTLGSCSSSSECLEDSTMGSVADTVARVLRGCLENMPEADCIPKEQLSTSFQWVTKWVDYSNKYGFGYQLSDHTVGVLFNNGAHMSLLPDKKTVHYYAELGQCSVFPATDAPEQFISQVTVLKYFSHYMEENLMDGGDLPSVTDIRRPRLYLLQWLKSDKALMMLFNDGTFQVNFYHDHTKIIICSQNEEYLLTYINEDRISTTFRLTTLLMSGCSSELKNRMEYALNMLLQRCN
As to the kind of experiment: Fluorescence polarization assay, Plk2 PBD / FITC-labeled phosphopeptide. It counts as binding. The protocol:
FP assay was performed as follow. Briefly, 30 μL Plk1 PBD proteins (400 nM) were incubated with 0.3 μL tested compounds (1 mg/mL) with shaking for 1 hr at room temperature (RT) prior to addition of 30 μL FITC-Poloboxtide (FITC-GPMQSpTPLNG-OH; λex/λem: 485/535 nm; 60 nM) in FP buffer (50 mM Tris-HCl, 10 mM NaCl, 1 mM EDTA pH8.0). Three wells containing 30 μL FITC-Poloboxtide (60 nM) and 30 μL Plk1 PBD (400 nM) were used as negative control (0% inhibition); three wells containing 60 μL FITC-Poloboxtide (30 nM) only were used as positive control (100% inhibition). Fluorescence polarization was analyzed after incubation of FITC-Poloboxtide for 15 min in a 384-well black opaque microplate (Cat# 6007270, PerkinElmer) using Envision Multilabel Reader (PerkinElmer) at 25°C. We calculated the percentage of inhibition for each sample as follows: Inhibition(%)=Negative−Sample/Negative−Positive×100%
We plotted the inhibition values and determined IC50 using GraphPad Prism5.0. Together with the FITC-labeled peptides used for Plk1 PBD as mentioned above, the following peptides were used for specificity assays, FITC-GPMQTSpTPKNG-OH (Plk2 PBD), FITC-GPLATSpTPKNG-OH (Plk3 PBD). As described above for the FP assay, proteins were used at the following final concentrations: Plk1 PBD, 200 nM; Plk2 PBD, 450 nM; Plk3 PBD, 600 nM. All FITC-labeled peptides were chemically synthesized (China Peptides Co., Ltd., Shanghai) and further verified by mass spectrometry, and the purity is more than 95.0%.
Background: In fluorescence polarisation assays a small probe gives low polarisation when free and higher when bound to something large.

Each structure is given as a SMILES string.

For the compound `CCS(=O)(=O)c1oc(-c2ccc(F)cc2)nc1S(=O)(=O)c1ccccc1` [T521, 5-(ethylsulfonyl)-2-(4-fluorophenyl)-4-(phenylsulfonyl) oxazole], the “cell population positive for Annexin V staining” value with HeLa cells is recorded as “increase of cell population positive for Annexin V staining”. In addition, the IC50 is 3 to 10 µM in assay [1] and more than 500 µM on Plk2 PBD (FP assay, 1 hr preincubation at RT, read-out: Apparent IC50). The “inhibition of binding of PBD to FITC-labeled phosphopeptide” value on Plk2 PBD (concentration as high as 500 μM) is on record as “little inhibition”.

The values are drawn from publication PMC5352051, “Identification of a novel Polo-like kinase 1 inhibitor that specifically blocks the functions of Polo-Box domain” (Oncotarget, 2016).
